What was measured:
[1] = system: Pseudomonas aeruginosa (PA), Proteus mirabilis (PM), and Staphylococcus aureus (SA); experiment: Microbial cell intactness: ΔCT by real-time RT-PCR, spiked whole blood samples; assay type: cell-based; conditions: 0.94% w/v detergent in type 3 reagent/blood mixture; all three species
[2] = system: Pseudomonas aeruginosa (PA), Proteus mirabilis (PM), and Staphylococcus aureus (SA); experiment: Microbial cell intactness: ΔCT by real-time RT-PCR, spiked phosphate buffer samples; assay type: cell-based; conditions: Triton X-100 0-0.75% w/v with SPS 15 mg/mL, no high pH; all cell types
Method: The effect of Triton X-100, one of the components of the type 2 blood lysis reagent, on microbial cell intactness, was experimentally investigated in the absence of a high pH environment (e.g. in the absence of a carbonate-bicarbonate buffer). Experiments were performed by contacting spiked phosphate buffer samples containing Pseudomonas aeruginosa (PA), Proteus mirabilis (PM), and Staphylococcus aureus (SA), prepared according to Example 3 below, with solutions containing Triton X-100 and SPS, such that the final concentrations of Triton X-100 in the various samples were 0, 0.188, 0.375, 0.55 and 0.75% w/v, and the SPS concentration was 15 mg/mL. Sample preparation and real time RT-PCR was performed according to the methods provided in Example 5 below. Spiked phosphate buffer samples, prepared according to the method of Example 3 below, were also prepared for spiked control and subjected to real time RT-PCR according to the method of Example 4 below. The ΔCT value, determined based on the difference between the spiked phosphate buffer sample CT value and the spiked control CT value, was employed as a proxy for microbial cell intactness after exposure to Triton X-100.
Bacterial cell suspension stock of 50 μL, having about 10^3 CFU of respective bacterial cells was added to 5 mL of 1 mM Phosphate Buffer (PB) and mixed by gentle vortexing. […]

`CCCCCCCCCCCC(=O)OCCOCCOCCOCCOCCOCCOCCOCCOCCOCCOCCOCCOCCOCCOCCOCCOCCOCCOCCOCCOCC(OCCOCCOCCOCCOCCOCCOCCOCCOCCOCCOCCOCCOCCOCCOCCOCCOCCOCCOCCOCCO)C1OCC(OCCOCCOCCOCCOCCOCCOCCOCCOCCOCCOCCOCCOCCOCCOCCOCCOCCOCCOCCOCCO)C1OCCOCCOCCOCCOCCOCCOCCOCCOCCOCCOCCOCCOCCOCCOCCOCCOCCOCCOCCOCCO` (centres unmarked) [Tween 20, Polysorbate 20] was tested, and the “ΔCT, Tween 20 compared with Triton X-100 as non-ionic detergent” value [1] was “very similar”.
With “polyethylene glycol p-(1,1,3,3-tetramethylbutyl)-phenyl ether [Triton X-100]” the ΔCT [2] was ≤ 2.
